The values below come from patent US9993459B2, “Selective HDAC6 inhibitors and uses thereof” (Universiteit Gent, priority 2015, dated 2018).

One data set concerns the target T1, HDAC6 (Homo sapiens, UniProt Q9UBN7).
T1 sequence (Q9UBN7 1-1215): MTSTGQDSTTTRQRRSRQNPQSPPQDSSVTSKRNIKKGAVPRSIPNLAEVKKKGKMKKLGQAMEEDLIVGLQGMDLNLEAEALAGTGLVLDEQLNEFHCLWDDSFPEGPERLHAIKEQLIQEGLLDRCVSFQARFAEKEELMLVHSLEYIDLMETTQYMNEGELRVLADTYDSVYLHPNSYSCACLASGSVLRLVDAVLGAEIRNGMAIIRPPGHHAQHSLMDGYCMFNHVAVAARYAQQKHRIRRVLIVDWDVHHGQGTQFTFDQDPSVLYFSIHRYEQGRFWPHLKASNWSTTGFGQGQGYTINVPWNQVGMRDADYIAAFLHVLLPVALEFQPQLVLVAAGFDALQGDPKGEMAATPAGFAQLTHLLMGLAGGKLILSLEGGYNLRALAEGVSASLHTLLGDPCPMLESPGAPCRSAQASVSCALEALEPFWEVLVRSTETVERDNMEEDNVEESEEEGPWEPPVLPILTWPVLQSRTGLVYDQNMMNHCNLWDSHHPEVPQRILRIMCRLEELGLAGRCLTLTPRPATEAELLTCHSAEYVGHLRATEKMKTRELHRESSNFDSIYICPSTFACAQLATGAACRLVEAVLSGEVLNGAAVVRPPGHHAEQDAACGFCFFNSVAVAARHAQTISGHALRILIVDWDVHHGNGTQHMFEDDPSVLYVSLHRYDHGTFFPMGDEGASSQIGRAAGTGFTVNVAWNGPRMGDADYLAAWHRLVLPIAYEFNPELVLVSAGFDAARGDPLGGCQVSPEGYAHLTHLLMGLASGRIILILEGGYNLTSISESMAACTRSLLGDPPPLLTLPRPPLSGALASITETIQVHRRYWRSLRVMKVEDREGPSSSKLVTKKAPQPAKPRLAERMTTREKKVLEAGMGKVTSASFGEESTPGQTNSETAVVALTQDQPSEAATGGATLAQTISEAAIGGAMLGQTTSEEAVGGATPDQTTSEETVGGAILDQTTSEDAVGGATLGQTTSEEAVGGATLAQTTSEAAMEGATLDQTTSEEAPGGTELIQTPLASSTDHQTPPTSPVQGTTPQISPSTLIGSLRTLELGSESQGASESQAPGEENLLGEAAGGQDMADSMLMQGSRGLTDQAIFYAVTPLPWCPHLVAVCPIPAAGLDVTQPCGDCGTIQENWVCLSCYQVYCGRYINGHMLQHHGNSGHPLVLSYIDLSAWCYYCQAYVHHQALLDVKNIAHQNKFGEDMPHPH
The data set can be described thus: In vitro HDAC6 inhibition. The class given is biochemical. The settings on record: for inhibition at 10 µM: HDAC6, 10 μM; for IC50: HDAC6, Table 1, read-out: IC50.

In another data set the test system is AP-1. The settings on record: published before; cited from earlier work.
For data set [1], the system named is glucocorticoid receptor, GR. Kind of data set: GRE-dependent luciferase reporter p(GRE)2-50-luc in A549 cells. The settings on record: A549; DEX 1 μM; CpdA 10 μM before DEX. The class given is cell-based. On the technique in general: In a reporter assay the amount or activity of a reporter protein is the signal.
Data set [2] deals with acetylation of α-tubulin in Neuro-2a cells. Kind of data set: Acetylation level of α-tubulin in Neuro-2a cells (Western blot). The class given is cell-based, Mouse. The settings on record: overnight, Neuro-2a; for normalized ratio Acetyl α-Tubulin/α-Tubulin against Tubastatin A, Average: Average of N = 1 to 4. As for the experimental part:
FIG. 1: Potency of inhibiting HDAC6 by compounds 7a, 7b and 13a in Neuro-2a cells. A. Cells were treated overnight with different concentrations of the HDAC6 inhibitors and blotted of the acetylation of α-tubulin.
Mouse neuroblastoma (Neuro-2a) cells were grown in a 1:1 mix of D-MEM (Dulbecco's Modified Eagle Medium) and F12 medium supplemented with glutamax (Invitrogen), 100 μg/ml streptomycin, 100 U/ml penicillin (Invitrogen), 10% fetal calf serum (Greiner Bio-one), 1% non-essential amino acids (Invitrogen) and 1.6% NaHCO3 (Invitrogen) at 37° C. and 7.5% CO2. To split the cells, cells were washed with Versene (Invitrogen) and dissociated with 0.05% Trypsine-EDTA (Invitrogen).
For sodium dodecyl sulfate-polyacrylamide gel electrophoresis (SDS-PAGE) analysis, transfected cells were collected using the EpiQuik Total Histone Extraction Kit (EpiGentek) according to manufacturer's instructions. Protein concentrations were determined using microBCA kit (Thermo Fisher Scientific Inc., Pittsburgh, Pa., USA) according to manufacturer's instructions. Before resolving the samples on a 12% SDS-PAGE gel, samples containing equal amounts of protein were supplemented with reducing sample buffer (Thermo Scientific) and boiled at 95° C. for 5 min. After electrophoresis, the proteins were transferred to a polyvinylidene difluoride (PVDF) membrane (Millipore Corp., Bedford, Mass., USA). The non-specific binding was blocked by incubation of the membrane in 5% bovine serum albumin (BSA), diluted in Tris Buffered Saline Tween (TBST, 50 mM TRIS, 150 mM NaCl, 0.1% Tween-20 (Applichem, Darmstadt, Duitsland) for 1 h at room temperature followed by incubation with primary antibodies overnight. The antibodies, diluted in TBS-T, were directed against α-tubulin (1/5000, T6199, Sigma-Aldrich), and acetylated α-tubulin (1/5000, T6793 monoclonal, Sigma-Aldrich). The secondary antibodies, coupled to alkaline phosphatase (anti-mouse or anti-rabbit, 1/5000, Sigma-Aldrich) were used. Blots were visualised by adding the ECF substrate (Enhanced Chemical Fluorescence, GE Healthcare, Uppsala, Sweden) and imaged with the ImageQuant_LAS 4000. A mild reblotting buffer (Millipore) was applied to strip the blots. ImageQuant TL version 7.0-software was used to quantify the blots.
Neuro-2a cells were treated overnight with different concentrations of the HDAC6 inhibitors and the effect on the acetylation level of α-tubulin was determined using Western blots (FIG. 1).
(In general: A western blot detects proteins with antibodies after separation by electrophoresis.)

In data set [3] the test system is TNF-α and IL-6 in LPS stimulated human THP-1 macrophages. The settings on record: reported; cited from earlier work.

Molecules are shown by their SMILES. Several values for one entry are separate records, joined by “and”; a condition that tells them apart may be missing. Equal values may be shown once.

As a reminder, the melting point is the temperature, or range, at which the solid turns liquid. In general, inhibition refers to the relative decrease from the control value, in per cent. Read a high inhibition as a response far below the control. The term IC50 denotes the concentration that gives 50% inhibition.

As to `O=C(NO)c1ccc(NCc2csc3ccc(-c4ccccc4)cc23)cc1` [Compound 7c, 3-[(4-hydroxycarbamoylphenyl)aminomethyl]-5-phenyl-benzothiophene], the melting point stood at 181 °C. On HDAC6, testing at 10 µM gave an inhibition of 95.1% and the IC50 came to 310 nM.

In turn, `Cc1cc(C(=O)NO)ccc1NCc1csc2ccccc12` [Compound 7d, 3-[(4-hydroxycarbamoyl-2-methylphenyl)aminomethyl]-benzothiophene] came in with a melting point of 190 °C. At HDAC6, testing at 10 µM gave an inhibition of 73.4% and the IC50 worked out at 2400 nM.

Turning to `O=C(NO)c1ccc(N(Cc2ccccc2)Cc2csc3ccccc23)cc1` [Compound 8a, 3-[N-benzyl-N-(4-hydroxycarbamoylphenyl)aminomethyl]-benzothiophene], the melting point came to 178 °C. For the same molecule, on HDAC6, the inhibition at 10 µM is 89.9% and the half-inhibitory concentration (IC50) was 470 nM.

`O=C(NO)c1ccc(N(Cc2ccccc2)Cc2csc3ccc(Br)cc23)cc1` [Compound 8b, 5-bromo-3-[N-benzyl-N-(4-hydroxycarbamoylphenyl)aminomethyl]-benzothiophene] came in with a melting point of 179 °C. Further, at HDAC6, 10 µM produced 84.9% inhibition and the IC50 was 850 nM.

In turn, `O=C(NO)c1ccc(N(Cc2ccccc2)Cc2csc3ccc(-c4ccccc4)cc23)cc1` [Compound 8c, 3-[N-benzyl-N-(4-hydroxycarbamoylphenyl)aminomethyl]-5-phenyl-benzothiophene] registered a melting point of 126 °C. The same molecule returned an inhibition at 10 µM at HDAC6 of 47.9%.

`O=C(NO)c1ccc(NCc2csc3cc(-c4ccccc4)ccc23)cc1` [Compound 13b, 3-[(4-hydroxycarbamoylphenyl)aminomethyl]-6-phenyl-benzothiophene] registered a melting point of 190.5 °C. Further, on HDAC6, the inhibition at 10 µM is 89.8% and the IC50 was 660 nM.

`O=C(NO)c1ccc(N(Cc2ccccc2)Cc2csc3cc(Br)ccc23)cc1` [Compound 14a, 6-bromo-3-[N-benzyl-N-(4-hydroxycarbamoylphenyl)aminomethyl]-benzothiophene] had a melting point of 97.5 °C. Also, on HDAC6, the inhibition at 10 µM came to 70.7% and the concentration for half-maximal inhibition (IC50) came out at 2100 nM.

`O=C(NO)c1ccc(N(Cc2ccccc2)Cc2csc3cc(-c4ccccc4)ccc23)cc1` [Compound 14b, 3-[N-benzyl-N-(4-hydroxycarbamoylphenyl)aminomethyl]-6-phenyl-benzothiophene] had a melting point of 102 °C. The molecule also gave an inhibition at 10 µM on HDAC6 of 61.1%.

In the case of `O=C(NO)c1ccc(NCc2c[nH]c3ccccc23)cc1` [Compound 18, 3-[(4-hydroxycarbamoylphenyl)aminomethyl]indole], the melting point came to 132.5 °C. In addition, on HDAC6, at 10 µM the inhibition was 99% and the IC50 was 200 nM.

For the molecule `CNCC(Cl)c1ccc(OC(C)=O)cc1.Cl` (stereo not drawn) [CpdA, reference compound], in the data set on AP-1, the “targeting of AP-1-driven promoters” value is on record as “does not target AP-1-driven promoters”. Besides, in data set [1], the “GRE-dependent reporter gene activity, reference compounds” value is given as “able to lower the GRE-dependent reporter gene activity”.

As to `CN1CCc2c(c3ccccc3n2Cc2ccc(C(=O)NO)cc2)C1` [Tub A, Tubastatin A, reference compound], the “normalized ratio Acetyl α-Tubulin/α-Tubulin against Tubastatin A, Average” value in data set [2] (50 nM) is 34.97 and 25.12 and 23.86; in data set [2] (100 nM) it was 44.00 and 41.43 and 34.18; in data set [2] (500 nM) it was 66.24 and 73.15 and 70.36; in data set [2] (1 μM), 100.00. For the same molecule, the “normalized ratio Acetyl α-Tubulin/α-Tubulin against Tubastatin A” value in data set [2] (1 μM, single experiments N = 1 to 4, Tub A 1 μM = 100) came to 100.00. Also, in data set [3], the “inhibition of TNF-α and IL-6” value is “significantly inhibit TNF-α and IL-6”.
